Source: ChEMBL document CHEMBL1781873, “Synthesis and antibacterial property of pyrrolopyrano quinolinones and pyrroloquinolines” (2011)
In brackets after ≈: the same amount, converted by molar mass. Activity calls are given as the source filed them. The calls are words filed in the database; no cut-off is given here.

Columns and labels:
Bacillus subtilis [1] = test: Antibacterial activity against Bacillus subtilis at 15 ug after 24 hrs by disc diffusion assay; type: functional; conditions: read-out: IZ
Staphylococcus aureus [2] = test: Antibacterial activity against Staphylococcus aureus after 18 to 20 hrs by broth micro dilution assay; type: functional
Staphylococcus aureus [3] = test: Antibacterial activity against Staphylococcus aureus at 5 ug after 24 hrs by disc diffusion assay; type: functional; conditions: read-out: IZ
Escherichia coli [4] = test: Antibacterial activity against Escherichia coli at 15 ug after 24 hrs by disc diffusion assay; type: functional; conditions: read-out: IZ
Staphylococcus aureus [5] = test: Antibacterial activity against Staphylococcus aureus at 10 ug after 24 hrs by disc diffusion assay; type: functional; conditions: read-out: IZ
Klebsiella pneumoniae [6] = test: Antibacterial activity against Klebsiella pneumoniae at 15 ug after 24 hrs by disc diffusion assay; type: functional; conditions: read-out: IZ
Pseudomonas aeruginosa [7] = test: Antibacterial activity against Pseudomonas aeruginosa at 20 ug after 24 hrs by disc diffusion assay; type: functional; conditions: read-out: IZ
Salmonella typhi [8] = test: Antibacterial activity against Salmonella typhi at 5 ug after 24 hrs by disc diffusion assay; type: functional, Salmonella enterica subsp. enterica serovar Typhi; conditions: Salmonella enterica, read-out: IZ
Klebsiella pneumoniae [9] = test: Antibacterial activity against Klebsiella pneumoniae at 5 ug after 24 hrs by disc diffusion assay; type: functional; conditions: read-out: IZ
Escherichia coli [10] = test: Inhibition of DNA gyrase mRNA expression in Escherichia coli measured up to 24 hrs by RT-PCR; type: functional, organism-based
Pseudomonas aeruginosa [11] = test: Antibacterial activity against Pseudomonas aeruginosa at 15 ug after 24 hrs by disc diffusion assay; type: functional; conditions: read-out: IZ
Klebsiella pneumoniae [12] = test: Antibacterial activity against Klebsiella pneumoniae at 10 ug after 24 hrs by disc diffusion assay; type: functional; conditions: read-out: IZ
Bacillus subtilis [13] = test: Antibacterial activity against Bacillus subtilis at 25 ug after 24 hrs by disc diffusion assay; type: functional; conditions: read-out: IZ
Bacillus subtilis [14] = test: Antibacterial activity against Bacillus subtilis at 20 ug after 24 hrs by disc diffusion assay; type: functional; conditions: read-out: IZ
Escherichia coli [15] = test: Antibacterial activity against Escherichia coli at 5 ug after 24 hrs by disc diffusion assay; type: functional; conditions: read-out: IZ
Pseudomonas aeruginosa [16] = test: Antibacterial activity against Pseudomonas aeruginosa at 5 ug after 24 hrs by disc diffusion assay; type: functional; conditions: read-out: IZ
Pseudomonas aeruginosa [17] = test: Antibacterial activity against Pseudomonas aeruginosa at 10 ug after 24 hrs by disc diffusion assay; type: functional; conditions: read-out: IZ
Klebsiella pneumoniae [18] = test: Antibacterial activity against Klebsiella pneumoniae after 18 to 20 hrs by broth micro dilution assay; type: functional
Escherichia coli [19] = test: Antibacterial activity against Escherichia coli at 25 ug after 24 hrs by disc diffusion assay; type: functional; conditions: read-out: IZ
Bacillus subtilis [20] = test: Antibacterial activity against Bacillus subtilis after 18 to 20 hrs by broth micro dilution assay; type: functional
Staphylococcus aureus [21] = test: Antibacterial activity against Staphylococcus aureus at 25 ug after 24 hrs by disc diffusion assay; type: functional; conditions: read-out: IZ
Escherichia coli [22] = test: Inhibition of Escherichia coli DNA gyrase assessed as inhibition of DNA supercoiling activity using pBR322 DNA as substrate at […] after 3 hrs by agarose gel electrophoresis
Escherichia coli [23] = test: Inhibition of Escherichia coli DNA gyrase -mediated DNA relaxation using pBR322 DNA as substrate at […] after 1 hrs by agarose gel electrophoresis
Staphylococcus aureus [24] = test: Antibacterial activity against Staphylococcus aureus at 20 ug after 24 hrs by disc diffusion assay; type: functional; conditions: read-out: IZ
Salmonella typhi [25] = test: Antibacterial activity against Salmonella typhi at 10 ug after 24 hrs by disc diffusion assay; type: functional, Salmonella enterica subsp. enterica serovar Typhi; conditions: Salmonella enterica, read-out: IZ
Klebsiella pneumoniae [26] = test: Antibacterial activity against Klebsiella pneumoniae at 25 ug after 24 hrs by disc diffusion assay; type: functional; conditions: read-out: IZ
Klebsiella pneumoniae [27] = test: Antibacterial activity against Klebsiella pneumoniae at 20 ug after 24 hrs by disc diffusion assay; type: functional; conditions: read-out: IZ
Salmonella typhi [28] = test: Antibacterial activity against Salmonella typhi at 20 ug after 24 hrs by disc diffusion assay; type: functional, Salmonella enterica subsp. enterica serovar Typhi; conditions: Salmonella enterica, read-out: IZ
Pseudomonas aeruginosa [29] = test: Antibacterial activity against Pseudomonas aeruginosa after 18 to 20 hrs by broth micro dilution assay; type: functional
Escherichia coli [30] = test: Antibacterial activity against Escherichia coli at 10 ug after 24 hrs by disc diffusion assay; type: functional; conditions: read-out: IZ
Pseudomonas aeruginosa [31] = test: Antibacterial activity against Pseudomonas aeruginosa at 25 ug after 24 hrs by disc diffusion assay; type: functional; conditions: read-out: IZ
Salmonella typhi [32] = test: Antibacterial activity against Salmonella typhi at 25 ug after 24 hrs by disc diffusion assay; type: functional, Salmonella enterica subsp. enterica serovar Typhi; conditions: Salmonella enterica, read-out: IZ
Salmonella typhi [33] = test: Antibacterial activity against Salmonella typhi at 15 ug after 24 hrs by disc diffusion assay; type: functional, Salmonella enterica subsp. enterica serovar Typhi; conditions: Salmonella enterica, read-out: IZ
Salmonella typhi [34] = test: Antibacterial activity against Salmonella typhi after 18 to 20 hrs by broth micro dilution assay; type: functional, Salmonella enterica subsp. enterica serovar Typhi; conditions: Salmonella enterica
Staphylococcus aureus [35] = test: Antibacterial activity against Staphylococcus aureus at 15 ug after 24 hrs by disc diffusion assay; type: functional; conditions: read-out: IZ
Escherichia coli [36] = test: Antibacterial activity against Escherichia coli at 20 ug after 24 hrs by disc diffusion assay; type: functional; conditions: read-out: IZ
Escherichia coli [37] = test: Antibacterial activity against Escherichia coli after 18 to 20 hrs by broth micro dilution assay; type: functional
Bacillus subtilis [38] = test: Antibacterial activity against Bacillus subtilis at 10 ug after 24 hrs by disc diffusion assay; type: functional; conditions: read-out: IZ

`CCC1[C@@H]2Nc3ccccc3C(c3ccccc3)[C@H]2CN1OS(=O)(=O)c1ccc(C)cc1` (some centres not stated) showed a zone of inhibition at 15 µg/disc (Bacillus subtilis [1]) of 6 mm, an MIC50 (Staphylococcus aureus [2]) of 64 µg/mL (≈ 143 µM) and an MIC90 (Staphylococcus aureus [2]) of 128 µg/mL (≈ 285 µM). For the same compound, the zone of inhibition at 5 µg/disc (Staphylococcus aureus [3]) was 20 mm, the zone of inhibition at 15 µg/disc (Escherichia coli [4]) was 18 mm and the zone of inhibition at 10 µg/disc (Staphylococcus aureus [5]) was 24 mm. The zone of inhibition at 15 µg/disc (Klebsiella pneumoniae [6]) was 30 mm, the zone of inhibition at 20 µg/disc (Pseudomonas aeruginosa [7]) was 20 mm and the zone of inhibition at 5 µg/disc (Salmonella typhi [8]) was 10 mm. The zone of inhibition at 5 µg/disc (Klebsiella pneumoniae [9]) was 20 mm, the “inhibition of gyrase mRNA expression (active/not active)” value (Escherichia coli [10]) was “inactive” and the zone of inhibition at 15 µg/disc (Pseudomonas aeruginosa [11]) was 16 mm. It also gave a zone of inhibition at 10 µg/disc (Klebsiella pneumoniae [12]) of 26 mm, a zone of inhibition at 25 µg/disc (Bacillus subtilis [13]) of 9 mm and a zone of inhibition at 20 µg/disc (Bacillus subtilis [14]) of 7 mm. For the same compound, the zone of inhibition at 5 µg/disc (Escherichia coli [15]) was 10 mm, the zone of inhibition at 5 µg/disc (Pseudomonas aeruginosa [16]) was 10 mm and the zone of inhibition at 10 µg/disc (Pseudomonas aeruginosa [17]) was 14 mm. For the same compound, the MIC50 (Klebsiella pneumoniae [18]) was 64 µg/mL (≈ 143 µM), the MIC90 (Klebsiella pneumoniae [18]) was 64 µg/mL (≈ 143 µM) and the zone of inhibition at 25 µg/disc (Escherichia coli [19]) was 23 mm. For the same compound, the MIC50 (Bacillus subtilis [20]) was 64 µg/mL (≈ 143 µM), the MIC90 (Bacillus subtilis [20]) was 128 µg/mL (≈ 285 µM) and the zone of inhibition at 25 µg/disc (Staphylococcus aureus [21]) was 36 mm. The “DNA gyrase inhibition (active/inactive)” value (Escherichia coli [22]) was “Active”, the inhibition (Escherichia coli [23]) was “Active” and the zone of inhibition at 20 µg/disc (Staphylococcus aureus [24]) was 30 mm. The zone of inhibition at 10 µg/disc (Salmonella typhi [25]) was 16 mm, the zone of inhibition at 25 µg/disc (Klebsiella pneumoniae [26]) was 36 mm and the zone of inhibition at 20 µg/disc (Klebsiella pneumoniae [27]) was 34 mm. For the same compound, the zone of inhibition at 20 µg/disc (Salmonella typhi [28]) was 22 mm, the MIC50 (Pseudomonas aeruginosa [29]) was 64 µg/mL (≈ 143 µM) and the MIC90 (Pseudomonas aeruginosa [29]) was 128 µg/mL (≈ 285 µM). The zone of inhibition at 10 µg/disc (Escherichia coli [30]) was 16 mm, the zone of inhibition at 25 µg/disc (Pseudomonas aeruginosa [31]) was 23 mm and the zone of inhibition at 25 µg/disc (Salmonella typhi [32]) was 24 mm. The zone of inhibition at 15 µg/disc (Salmonella typhi [33]) was 18 mm, the MIC50 (Salmonella typhi [34]) was 64 µg/mL (≈ 143 µM) and the MIC90 (Salmonella typhi [34]) was 128 µg/mL (≈ 285 µM). For the same compound, the zone of inhibition at 15 µg/disc (Staphylococcus aureus [35]) was 26 mm, the zone of inhibition at 20 µg/disc (Escherichia coli [36]) was 20 mm and the MIC50 (Escherichia coli [37]) was 64 µg/mL (≈ 143 µM). The MIC90 (Escherichia coli [37]) was 64 µg/mL (≈ 143 µM).
With `CCC1[C@H]2c3c(n(C)c4ccccc4c3=O)OC(C)(C)[C@@H]2CN1OS(=O)(=O)c1ccc(C)cc1` (mixture of isomers) the zone of inhibition at 15 µg/disc (Bacillus subtilis [1]) was 9 mm, the MIC50 (Staphylococcus aureus [2]) was 0.5 µg/mL and the MIC90 (Staphylococcus aureus [2]) was 0.5 µg/mL. For the same compound, the zone of inhibition at 5 µg/disc (Staphylococcus aureus [3]) was 20 mm, the zone of inhibition at 15 µg/disc (Escherichia coli [4]) was 16 mm and the zone of inhibition at 10 µg/disc (Staphylococcus aureus [5]) was 24 mm. For the same compound, the zone of inhibition at 15 µg/disc (Klebsiella pneumoniae [6]) was 16 mm, the zone of inhibition at 20 µg/disc (Pseudomonas aeruginosa [7]) was 34 mm and the zone of inhibition at 5 µg/disc (Salmonella typhi [8]) was 10 mm. The zone of inhibition at 5 µg/disc (Klebsiella pneumoniae [9]) was 10 mm, the “inhibition of gyrase mRNA expression (active/not active)” value (Escherichia coli [10]) was “inactive” and the zone of inhibition at 15 µg/disc (Pseudomonas aeruginosa [11]) was 28 mm. The zone of inhibition at 10 µg/disc (Klebsiella pneumoniae [12]) was 14 mm, the zone of inhibition at 25 µg/disc (Bacillus subtilis [13]) was 11 mm and the zone of inhibition at 20 µg/disc (Bacillus subtilis [14]) was 10 mm. It also gave a zone of inhibition at 5 µg/disc (Escherichia coli [15]) of 12 mm, a zone of inhibition at 5 µg/disc (Pseudomonas aeruginosa [16]) of 24 mm and a zone of inhibition at 10 µg/disc (Pseudomonas aeruginosa [17]) of 26 mm. It also gave an MIC50 (Klebsiella pneumoniae [18]) of 0.5 µg/mL, an MIC90 (Klebsiella pneumoniae [18]) of 0.5 µg/mL and a zone of inhibition at 25 µg/disc (Escherichia coli [19]) of 23 mm. For the same compound, the zone of inhibition at 10 µg/disc (Bacillus subtilis [38]) was 8 mm, the MIC50 (Bacillus subtilis [20]) was 0.5 µg/mL and the MIC90 (Bacillus subtilis [20]) was 0.5 µg/mL. The zone of inhibition at 25 µg/disc (Staphylococcus aureus [21]) was 36 mm, the “DNA gyrase inhibition (active/inactive)” value (Escherichia coli [22]) was “Active” and the inhibition (Escherichia coli [23]) was “Active”. It also gave a zone of inhibition at 20 µg/disc (Staphylococcus aureus [24]) of 30 mm, a zone of inhibition at 10 µg/disc (Salmonella typhi [25]) of 16 mm and a zone of inhibition at 25 µg/disc (Klebsiella pneumoniae [26]) of 26 mm. For the same compound, the zone of inhibition at 20 µg/disc (Klebsiella pneumoniae [27]) was 24 mm, the zone of inhibition at 20 µg/disc (Salmonella typhi [28]) was 22 mm and the MIC50 (Pseudomonas aeruginosa [29]) was 0.5 µg/mL. For the same compound, the MIC90 (Pseudomonas aeruginosa [29]) was 0.5 µg/mL, the zone of inhibition at 10 µg/disc (Escherichia coli [30]) was 14 mm and the zone of inhibition at 25 µg/disc (Pseudomonas aeruginosa [31]) was 36 mm. For the same compound, the zone of inhibition at 25 µg/disc (Salmonella typhi [32]) was 24 mm, the zone of inhibition at 15 µg/disc (Salmonella typhi [33]) was 18 mm and the MIC50 (Salmonella typhi [34]) was 0.5 µg/mL. For the same compound, the MIC90 (Salmonella typhi [34]) was 0.5 µg/mL, the zone of inhibition at 15 µg/disc (Staphylococcus aureus [35]) was 26 mm and the zone of inhibition at 20 µg/disc (Escherichia coli [36]) was 22 mm. For the same compound, the MIC50 (Escherichia coli [37]) was 0.5 µg/mL and the MIC90 (Escherichia coli [37]) was 0.5 µg/mL.
